From patent US7368430B2, “Selective inhibitors of nuclear factor-κB activation and uses thereof” (Research Development Foundation, priority 2003, dated 2008)
Where a SMILES comes first, the peptide text is derived from it.

Assays:
[1] = test system: KBM-5 cells; test: Cytotoxicity assay (MTT assay); format: cell-based; settings: 100 μM peptide; for effect on TNF-induced cytotoxicity (MTT): KBM-5 cells, TNF 72 h (FIG. 7A)
Method: Five thousand KBM-5 cells were seeded in triplicate in 96-well plates. Cells were pretreated with 100 μM PTD-p65-P1, and then incubated with the indicated concentrations of TNF for 72 hour. Thereafter, cell viability was analyzed by MTT assay.
Five thousand cells were seeded in triplicate in 96-well plates. Cells were pretreated with 100 μM protein transduction domain-p65-P1 and then incubated with indicated concentrations of TNF or doxorubicin or cisplatin for 72 hr. Thereafter, cell viability was analyzed by the MTT method.
The cytotoxic effects of […] were determined by the MTT uptake method as described (Manna et al., 2000a). Briefly, 5000 cells were incubated with synthetic peptides for 1 hour in triplicate in 96-well plates, and then treated with various concentration of TNF for 72 hours at 37° C. Thereafter, MTT solution was added to each well. After a 2-hr incubation at 37° C., extraction buffer (20% SDS, 50% dimethylformamide) was added, the cells were incubated overnight at 37° C., and then the OD was measured at 570 nm using a 96-well multiscanner (Dynex Technologies, MRX Revelation; Chantilly, Va.).

[2] = molecular target: T1, NF-κB (p50-p65) binding to DNA (Homo sapiens, UniProt Q04206); test: EMSA of NF-κB binding to DNA, nuclear extracts of TNF-treated cells incubated with peptides in vitro; format: biochemical; settings: nuclear extracts of TNF-treated KBM-5 cells incubated 30 min with peptides (FIG. 2A)
T1 construct: endogenous in cells; host or cells: KBM-5 cells, TNF-treated, nuclear extract
Method: Nuclear extracts were prepared from TNF-treated cells, incubated for 30 min with various concentrations of peptides, and then assayed for NF-κB activation by EMSA.
NF-κB activation was examined by electrophoretic mobility shift assays as described (Chaturvedi et al., 1994; Takada and Aggarwal). Briefly, nuclear extracts prepared from TNF-treated cells (1×10^6/ml) were incubated with ^32P-end-labeled 45-mer double-stranded NF-κB oligonucleotide (10 ug of protein with 16 fmol of DNA) from the human immunodeficiency virus long terminal repeat, 5′-[…] CAGGGAGGCGTGG-3′ (SEQ ID NO. 1, boldface indicates NF-κB binding sites) for 30 min at 37° C., and the DNA-protein complex formed was separated from free oligonucleotide on 6.6% native polyacrylamide gels. A double-stranded mutated oligonucleotide, 5′-[…]-3′(SEQ ID NO. 2) was used to examine the specificity of binding of NF-κB to the DNA. The specificity of binding was also examined by competition with unlabeled oligonucleotide.
The dose-dependent effect of protein transduction domain-p65-P1 and p65-P1 on p50-p65 binding to DNA was investigated. […] The protein transduction domain alone had no effect.

[3] = test system: NF-κB; test: EMSA of NF-κB activation in KBM-5 cells preincubated with peptides; format: cell-based; settings: various concentrations of peptides 1 h, 0.1 nM TNF 30 min (FIG. 3C)
Method: NF-κB activation was examined by electrophoretic mobility shift assays as described (Chaturvedi et al., 1994; Takada and Aggarwal). Briefly, nuclear extracts prepared from TNF-treated cells (1×10^6/ml) were incubated with ^32P-end-labeled 45-mer double-stranded NF-κB oligonucleotide (10 ug of protein with 16 fmol of DNA) from the human immunodeficiency virus long terminal repeat, 5′-[…] CAGGGAGGCGTGG-3′ (SEQ ID NO. 1, boldface indicates NF-κB binding sites) for 30 min at 37° C., and the DNA-protein complex formed was separated from free oligonucleotide on 6.6% native polyacrylamide gels. […]
To determine the effects of peptide containing Ser 276 (PTD-p65-P1), KBM-5 cells was preincubated with the peptides for 1 h, and then treated with 0.1 nM TNF for the indicated times. Nuclear extracts were prepared, and NF-κB activation was analyzed by electrophoretic mobility shift assays (EMSA). […]
Lipopolysaccharide, IL-1, okadaic acid, PMA, H2O2, and cigarette smoke condensate are potent activators of NF-κB, but the mechanisms differ. […] Cells were preincubated with 150 μM protein transduction domain-p65-P1 for 1 h, treated with 0.1 nM TNF, 1 μg/ml LPS, 100 ng/ml IL-1, 500 nM okadaic acid, 10 ng/ml PMA, 500 μM H2O2, or 1 μg/ml cigarette smoke condensate and then analyzed for NF-κB activation by EMSA.

[4] = molecular target: T2, IKK complex (Homo sapiens, UniProt O14920+O15111); test: Cell-free phosphorylation of p65 peptides by immunoprecipitated IKK complex; format: biochemical; settings: 10 μg of peptides as substrate (FIG. 5C)
T2 construct: Whole-cell extracts were prepared from TNF-treated cells and immunoprecipitated with antibody against IKK-α; endogenous in cells
Method: Whole-cell extracts were prepared from TNF-treated cells and immunoprecipitated with antibody against IKK-α. Thereafter immunocomplex kinase assay was performed in the presence of the peptides as a substrate.
To determine the total amounts of IKK-α and IKK-β in each sample, […] of the whole-cell protein was resolved on 7.5% SDS-PAGE, electrotransferred to a nitrocellulose membrane, and then blotted with either anti-IKK-α or anti-IKK-β antibodies. Cell-free phosphorylation of peptide by IKK was also determined using 10 μg of peptides as a substrate in the kinase reaction mixture described above, and then fractionated on 20% SDS-PAGE in 2×SDS electrophoresis buffer.
p65-P1 and p65-p6 have one or two serine residues respectively. Whether these serine residues can be phosphorylated by IKK was investigated. Whole-cell extracts from TNF-treated cells were immunoprecipitated with antibody against IKK and then immunocomplex kinase assay was performed using p65-peptides as substrates. After reaction, samples were fractionated on 20% SDS-PAGE with 2-fold electrophoresis buffer.

T1 sequence (Q04206 whole entry): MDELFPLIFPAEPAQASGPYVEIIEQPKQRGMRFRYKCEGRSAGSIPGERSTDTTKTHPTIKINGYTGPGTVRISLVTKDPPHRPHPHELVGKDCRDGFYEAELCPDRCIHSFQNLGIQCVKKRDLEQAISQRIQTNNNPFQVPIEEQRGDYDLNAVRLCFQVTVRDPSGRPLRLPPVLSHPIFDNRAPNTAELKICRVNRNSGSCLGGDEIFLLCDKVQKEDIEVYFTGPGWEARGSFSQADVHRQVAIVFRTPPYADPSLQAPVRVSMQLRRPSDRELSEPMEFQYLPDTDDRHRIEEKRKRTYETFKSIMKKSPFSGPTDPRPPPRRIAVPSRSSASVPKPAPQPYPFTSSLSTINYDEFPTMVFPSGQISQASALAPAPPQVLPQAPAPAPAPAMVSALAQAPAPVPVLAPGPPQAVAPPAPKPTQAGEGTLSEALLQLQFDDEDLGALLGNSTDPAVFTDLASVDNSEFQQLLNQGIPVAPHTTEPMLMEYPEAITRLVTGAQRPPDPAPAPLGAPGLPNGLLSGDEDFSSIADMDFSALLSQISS
T2 sequence (O15111 whole entry): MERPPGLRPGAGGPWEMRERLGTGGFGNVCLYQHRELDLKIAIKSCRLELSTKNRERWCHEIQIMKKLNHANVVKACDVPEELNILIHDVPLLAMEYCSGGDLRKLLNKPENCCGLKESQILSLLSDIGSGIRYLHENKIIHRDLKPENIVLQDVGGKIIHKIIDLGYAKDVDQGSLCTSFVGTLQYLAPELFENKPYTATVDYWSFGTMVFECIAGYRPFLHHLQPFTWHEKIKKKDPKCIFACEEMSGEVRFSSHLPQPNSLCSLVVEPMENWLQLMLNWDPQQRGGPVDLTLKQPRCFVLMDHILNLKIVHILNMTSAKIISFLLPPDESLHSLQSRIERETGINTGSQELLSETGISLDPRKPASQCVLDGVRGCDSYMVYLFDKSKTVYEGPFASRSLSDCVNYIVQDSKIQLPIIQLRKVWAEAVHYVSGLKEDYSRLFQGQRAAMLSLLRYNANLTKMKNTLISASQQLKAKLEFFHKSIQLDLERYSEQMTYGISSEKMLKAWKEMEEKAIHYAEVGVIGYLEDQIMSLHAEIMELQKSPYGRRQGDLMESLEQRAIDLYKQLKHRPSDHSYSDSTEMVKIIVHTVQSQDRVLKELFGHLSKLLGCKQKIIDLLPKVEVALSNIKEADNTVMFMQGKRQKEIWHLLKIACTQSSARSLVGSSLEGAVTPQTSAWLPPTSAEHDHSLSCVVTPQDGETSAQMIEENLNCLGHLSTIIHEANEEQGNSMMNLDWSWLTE
T2 sequence (O14920 whole entry): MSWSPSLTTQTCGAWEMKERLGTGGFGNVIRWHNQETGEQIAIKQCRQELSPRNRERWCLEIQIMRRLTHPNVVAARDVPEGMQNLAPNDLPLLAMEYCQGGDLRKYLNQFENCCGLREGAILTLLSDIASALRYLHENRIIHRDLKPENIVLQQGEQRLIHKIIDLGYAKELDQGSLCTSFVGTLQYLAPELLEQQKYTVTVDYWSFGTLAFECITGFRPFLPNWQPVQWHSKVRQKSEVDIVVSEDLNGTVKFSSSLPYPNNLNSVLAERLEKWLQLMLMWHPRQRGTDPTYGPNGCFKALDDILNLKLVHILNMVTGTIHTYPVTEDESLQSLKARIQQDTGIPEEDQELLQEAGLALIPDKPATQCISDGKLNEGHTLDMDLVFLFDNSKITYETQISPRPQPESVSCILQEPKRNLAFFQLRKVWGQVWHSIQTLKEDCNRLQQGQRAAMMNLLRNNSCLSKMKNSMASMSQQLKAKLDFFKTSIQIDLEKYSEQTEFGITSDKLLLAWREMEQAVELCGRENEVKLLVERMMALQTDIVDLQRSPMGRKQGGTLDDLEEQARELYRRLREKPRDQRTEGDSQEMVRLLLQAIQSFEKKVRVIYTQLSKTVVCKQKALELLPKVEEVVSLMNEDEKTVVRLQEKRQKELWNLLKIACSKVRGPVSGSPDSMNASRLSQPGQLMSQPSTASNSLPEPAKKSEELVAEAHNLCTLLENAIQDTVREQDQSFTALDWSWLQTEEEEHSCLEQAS
T2 sequence (Q9Y6K9 whole entry partner): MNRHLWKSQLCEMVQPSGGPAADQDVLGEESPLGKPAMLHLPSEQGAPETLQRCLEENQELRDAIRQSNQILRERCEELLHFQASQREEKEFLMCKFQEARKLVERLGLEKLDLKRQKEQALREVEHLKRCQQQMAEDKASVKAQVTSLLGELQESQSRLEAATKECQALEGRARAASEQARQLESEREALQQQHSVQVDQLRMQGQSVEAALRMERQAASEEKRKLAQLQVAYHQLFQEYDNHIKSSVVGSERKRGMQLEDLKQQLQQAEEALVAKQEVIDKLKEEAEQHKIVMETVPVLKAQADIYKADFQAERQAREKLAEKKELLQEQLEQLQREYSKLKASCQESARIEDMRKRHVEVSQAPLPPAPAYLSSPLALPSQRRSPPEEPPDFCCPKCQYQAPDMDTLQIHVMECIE

Row | inhibition of NF-κB binding to the DNA in vitro [2] | Compound | effect on TNF-induced cytotoxicity (MTT) [1] | other results
1 |  | CC(C)C[C@H](NC(=O)[C@H](CCC(=O)O)NC(=O)[C@H](CCCNC(=N)N)NC(=O)[C@H](CC(=O)O)NC(=O)[C@H](CO)NC(=O)[C@@H]1CCCN1C(=O)[C@H](CCCNC(=N)N)NC(=O)[C@H](CCCNC(=N)N)NC(=O)[C@H](CC(C)C)NC(=O)[C@@H](N)CCC(N)=O)C(=O)N[C@@H](CO)C(=O)N[C@@H](CCC(=O)O)C(=O)O [p65-P1, QLRRPSDRELSE] (H-QLRRPSDRELSE-OH) | had no effect | 
2 | inactive | p65-P5: Peptide in which three amino acid residues were deleted from the N-terminus (RPSDRELSE; CHAIN p65-P5, mutated peptide derived from the p65 subunit of NF-kB) |  | 
3 | inactive | p65-P4: Peptide in which five amino acid residues were deleted from the C-terminus (QLRRPSD; CHAIN p65-P4, mutated peptide derived from the p65 subunit of NF-kB) |  | 
4 |  | CC[C@H](C)[C@H](NC(=O)[C@H](CCCCN)NC(=O)[C@@H](NC(=O)[C@H](CCC(N)=O)NC(=O)[C@H](CCCNC(=N)N)NC(=O)[C@@H](N)CC(=O)O)[C@@H](C)CC)C(=O)N[C@@H](Cc1c[nH]c2ccccc12)C(=O)N[C@@H](Cc1ccccc1)C(=O)N[C@@H](CCC(N)=O)C(=O)N[C@@H](CC(N)=O)C(=O)N[C@@H](CC(N)=O)C(=O)N[C@@H](CCCNC(=N)N)C(=O)N[C@@H](CCCNC(=N)N)C(=O)N[C@@H](CCSC)C(=O)N[C@@H](CCCCN)C(=O)N[C@@H](Cc1c[nH]c2ccccc12)C(=O)N[C@@H](CCCCN)C(=O)N[C@@H](CCCCN)C(=O)O [protein transduction domain, reference compound] (H-DRQIKIWFQNNRRMKWKK-OH) | had no effect | 
5 |  | p65-P6: SEQ ID NO. 11; p65 peptide containing Ser 529 and 536, amino acid 525-537 of the p65 subunit (NGLLSGDEDFSS; CHAIN p65-P6, peptide derived from the p65 subunit of NF-kB) |  | effect on TNF-induced NF-κB activation (EMSA, dose response) [3]: Neither a protein transduction domain nor p65-P6 alone had any effect; phosphorylation of the peptide by IKK complex [4]: can phosphorylate
6 |  | CC[C@H](C)[C@H](NC(=O)[C@H](CCCCN)NC(=O)[C@@H](NC(=O)[C@H](CCC(N)=O)NC(=O)[C@H](CCCNC(=N)N)NC(=O)[C@@H](N)CC(=O)O)[C@@H](C)CC)C(=O)N[C@@H](Cc1c[nH]c2ccccc12)C(=O)N[C@@H](Cc1ccccc1)C(=O)N[C@@H](CCC(N)=O)C(=O)N[C@@H](CC(N)=O)C(=O)N[C@@H](CC(N)=O)C(=O)N[C@@H](CCCNC(=N)N)C(=O)N[C@@H](CCCNC(=N)N)C(=O)N[C@@H](CCSC)C(=O)N[C@@H](CCCCN)C(=O)N[C@@H](Cc1c[nH]c2ccccc12)C(=O)N[C@@H](CCCCN)C(=O)N[C@@H](CCCCN)C(=O)N[C@@H](CCC(N)=O)C(=O)N[C@@H](CC(C)C)C(=O)N[C@@H](CCCNC(=N)N)C(=O)N[C@@H](CCCNC(=N)N)C(=O)N1CCC[C@H]1C(=O)N[C@@H](CO)C(=O)N[C@@H](CC(=O)O)C(=O)N[C@@H](CCCNC(=N)N)C(=O)N[C@@H](CCC(=O)O)C(=O)N[C@@H](CC(C)C)C(=O)N[C@@H](CO)C(=O)N[C@@H](CCC(=O)O)C(=O)O [PTD-p65-P1] (H-DRQIKIWFQNNRRMKWKKQLRRPSDRELSE-OH) | enhanced TNF-induced cytotoxicity | effect on cisplatin-induced cytotoxicity (MTT) ([1]; cisplatin 72 hr (FIG. 7D bottom panel)): potentiated; effect on doxorubicin-induced cytotoxicity (MTT) ([1]; doxorubicin 72 hr (FIG. 7D top panel)): potentiated
7 |  | PTD-p65-P6: SEQ ID NO. 10; antennapedia protein transduction domain linked to amino acid 525-537 of the p65 subunit (DRQIKIWFQNNRRMKWKKNGLLSGDEDFSS; CHAIN PTD-p65-P6, cell permeable NF-kb inhibitor) |  | effect on TNF-induced NF-κB activation (EMSA, dose response) [3]: inhibited TNF-induced NF-κB activation in a dose dependent manner
8 | did not inhibit | p65-P7: Peptide in which Ser 529 was mutated (NGLLAGDEDFSS; CHAIN p65-P7, mutated peptide derived from the p65 subunit of NF-kB) |  | 
9 | did not inhibit | p65-P2: Peptide in which Ser 276 was mutated (QLRRPADRELSE; CHAIN p65-P2, mutated peptide derived from the p65 subunit of NF-kB) |  | 
10 | did not inhibit | p65-p8: Peptide in which Ser 536 was mutated (NGLLSGDEDFSA; CHAIN p65-P8, mutated peptide derived from the p65 subunit of NF-kB) |  | 
